# Results published in publication PMC7165421 (Proceedings of the National Academy of Sciences of the …, 2020).
# How the values were obtained:
# ΔNTD AR = assay: Peptide binding by fluorescence polarization; set-up: species or system mouse
# AR LBD = details: cited from earlier work
# ARE/Scr dsDNA = assay: DNA binding by fluorescence polarization, ARE/Scr dsDNA; details: ΔNTD AR expressed and purified in presence of enzalutamide (20 μM) vs DHT
# [1] = test system: AR binding from chromatin; details: ChIP assays; cited from earlier work
# ARE dsDNA = assay: DNA binding by fluorescence polarization, minimal ARE dsDNA; details: ΔNTD AR, specificity control
# [2] = test system: ARE containing double-stranded DNA (dsDNA) templates; assay: DNA binding by fluorescence polarization, all ARE dsDNAs tested; details: FL AR relative to ΔNTD AR, DHT-bound
molecule,measurement,setting,value
KTYRGAFQNLFQSVREA [AF1],binding to ΔNTD AR with full-length ERG present,"ΔNTD AR; equimolar full-length ERG, fluorescein-labeled AF1 peptide",further decrease in AF1 binding
same,affinity for ΔNTD AR compared to ERG AIM peptide,"ΔNTD AR; presence and absence of DNA, fluorescein-labeled AF1 peptide",more than an order of magnitude reduced affinity
same,affinity of AF1 for AR LBD,AR LBD,micromolar
QIQLWHFILELLRKEEY [ERF AIM],affinity compared to the ERG AIM,ΔNTD AR; ΔNTD AR,slightly less than the ERG AIM
"CNC(=O)c1ccc(N2C(=S)N(c3ccc(C#N)c(C(F)(F)F)c3)C(=O)C2(C)C)cc1F [ENZ, enzalutamide]",reduction of AR DNA binding relative to DHT,ARE/Scr dsDNA,twofold
same,displacement of AR from chromatin,[1],displaces AR binding from chromatin in cells
bovine serum albumin (BSA): specificity control,stimulation of AR DNA binding,ARE dsDNA,failed to stimulate AR
FL AR: recombinant AR with the N terminus intact (protein) MEVQLGLGRVYPRPPSKTYRGAFQNLFQSVREAIQNPGPRHPEAANIAPPGACLQQRQETSPRRRRRQQHTEDGSPQAHIRGPTGYLALEEEQQPSQQQAASEGHPESSCLPEPGAATAPGKGLPQQPPAPPDQDDSAAPSTLSLLGPTFPGLSSCSADIKDILNEAGTMQLLQQQQQQQQHQQQHQQHQQQQEVISEGSSARAREATGAPSSSKDSYLGGNSTISDSAKELCKAVSVSMGLGVEALEHLSPGEQLRGDCMYASLLGGPPAVRPTPCAPLPECKGLPLDEGPGKSTEETAEYSSFKGGYAKGLEGESLGCSGSSEAGSSGTLEIPSSLSLYKSGALDEAAAYQNRDYYNFPLALSGPPHPPPPTHPHARIKLENPLDYGSAWAAAAAQCRYGDLGSLHGGSVAGPSTGSPPATTSSSWHTLFTAEEGQLYGPGGGGGSSSPSDAGPVAPYGYTRPPQGLTSQESDYSASEVWYPGGVVNRVPYPSPNCVKSEMGPWMENYSGPYGDMRLDSTRDHVLPIDYYFPPQKTCLICGDEASGCHYGALTCGSCKVFFKRAAEGKQKYLCASRNDCTIDKFRRKNCPSCRLRKCYEAGMTLGARKLKKLGNLKLQEEGENSNAGSPTEDPSQKMTVSHIEGYECQPIFLNVLEAIEPGVVCAGHDNNQPDSFAALLSSLNELGERQLVHVVKWAKALPGFRNLHVDDQMAVIQYSWMGLMVFAMGWRSFTNVNSRMLYFAPDLVFNEYRMHKSRMYSQCVRMRHLSQEFGWLQITPQEFLCMKALLLFSIIPVDGLKNQKFFDELRMNYIKELDRIIACKRKNPTSCSRRFYQLTKLLDSVQPIARELHQFTFDLLIKSHMVSVDFPEMMAEIISVQVPKILSGKVKPIYFHTQ,impairment of DNA binding by presence of NTD,[2],greater than 10 fold
